From patent US20170080049A1, “MEDICINE AGAINST GROWTH FAILURE INDUCED BY ADMINISTRATION OF STEROID” (DAIICHI SANKYO COMPANY, LIMITED, priority 2014, published 2017)

Tests used:
[1] = system: steroid-induced growth failure, male Crlj:WI (Wistar) rat; experiment: Simultaneous combined administration test of various steroids and CNP derivative (A) in rats (Example 5); assay type: in vivo
Description: 0.3 mg/mL solution of dexamethasone (dexamethasone injection “KS”, available from Kyoritsuseiyaku Corporation diluted with saline), prednisolone succinate suspended in 0.1% polysorbate-containing brine (available from Wako Pure Chemical Industries, Ltd., concentration of 5 mg/mL as prednisolone), or betamethasone dipropionate suspended in 0.1% polysorbate-containing brine (available from Wako Pure Chemical Industries, Ltd., concentration of 0.3 mg/mL as betamethasone) was administered to the hypoderm of the back of a 4-week-old male Crlj:WI (Wistar) rat (ten animals for each set of substances) in a volume of 1 mL/kg once a day for 28 days. No substance was administered to the control group (5 animals, Group 1). At the same time, for five of ten animals in each set (Group 2, Group 4, Group 6) a medium (0.03 mol/L acetate buffer (pH 4.0)/1% benzyl alcohol/10% sucrose) and for the remaining five animals (Group 3, Group 5, Group 7) the medium and a 1 mg/mL solution of CNP derivative (A) were administered in combination in the hypoderm of the back in a volume of 1 mL/kg once a day for 28 days. After measuring the body weight, the body length and the tail length under isoflurane anesthesia on the day after the final day of administration, blood was collected from the abdominal aorta and the animal was caused to die, the right femur was extracted and the femur length was measured.

[2] = system: dexamethasone-induced growth failure, male Crlj:WI (Wistar) rat; assay type: in vivo; conditions: dexamethasone 1 mg/mL pump alone or combined with CNP derivative (A) 20 mg/mL pump, continuous s.c. 28 days, mean ± SD, n=6
Description: Osmotic pumps (MINI-OSMOTIC PUMP Model 2004, available from DURECT CORPORATION, flow rate: 0.25 μL/hr, for 28 days) were charged with a 1 mg/mL solution of dexamethasone (dexamethasone injection “KS”, available from Kyoritsuseiyaku Corporation, Group 2 and Group 3) or saline in a control group (Group 1), and one osmotic pump was embedded in the hypoderm of the back of each 7-week-old male Crlj:WI (Wistar) rat. At the same time, one osmotic pump (the same as described above) charged with a 20 mg/mL solution of CNP derivative (A) in Group 3, or charged with Medium 1 (0.03 mol/L acetate buffer (pH 4.0)/1% benzyl alcohol/10% sucrose) in Group 1 and Group 2 was embedded in the hypoderm of the back simultaneously with the pump containing dexamethasone or saline. Then the animals were fed for 28 days, and the body weight, the body length (length from the top of the nose to the anus) and the tail length were measured on the final day, and after collecting the blood from the abdominal aorta under isoflurane anesthesia, the right femur and major organs (spleen, thymus, liver, heart and lung) were collected. Regarding the femur, the bone length and width were measured by using a caliper, and the organ weights were measured. Concentrations of cholesterol and IGF-1 in plasma prepared from the blood, were determined by using cholesterol E-Test Wako (available from Wako Pure Chemical Industries, Ltd.) and Quantikine® ELISA Mouse/Rat IGF-I Immunoassay (MG100, available from R&D Systems). [Result]

[3] = dexamethasone 0.3 mg/mL, 1 mL/kg s.c. once a day 28 days, + medium or + CNP derivative (A) 1 mg/kg, n=5

C[C@@H]1C[C@H]2[C@@H]3CCC4=CC(=O)C=C[C@]4(C)[C@@]3(F)[C@@H](O)C[C@]2(C)[C@@]1(O)C(=O)CO [Dexamethasone, dexamethasone]
Body length at dissection [1, 3]: 177 ± 4 mm
Body length, variation from preadministration value (Δ value) [1, 3]: (27 ± 5) mm
Body weight, variation from preadministration value (Δ value) [1, 3]: (69 ± 5) g
Right femur length at dissection [1, 3]: 28.3 ± 0.4 mm
Tail length at dissection [1, 3]: 174 ± 4 mm
Tail length, variation from preadministration value (Δ value) [1, 3]: (47 ± 7) mm
Body weight at dissection ([1]; dexamethasone 0.3 mg/mL, 1 mL/kg s.c. once a day 28 days, + medium or + CNP derivative (A) 1 mg/mL, 1 mL/kg s.c. once a day, 4-week-old male Wistar rat, mean ± SD, n=5): 176 ± 5 g
growth failure in rats by repeated administration of the steroid for 28 days (in words) ([1]; rat, in vivo, sc): induce growth failure
Body length at final day ([2]; 7-week-old male Wistar rat): 219 ± 5 mm
Tail length at final day ([2]; 7-week-old male Wistar rat): 195 ± 6 mm
Right femur Length ([2]; male Wistar rat): 35.6 ± 0.6 mm
Right femur Wide (epiphyseal region, maximum width) ([2]; male Wistar rat): 7.7 ± 0.4 ^NS mm
